The subject of this data set is nOSTZ rat. Put plainly: Antidiabetic effect of the metformin and CRE16336 combination on the nOSTZ rat (glycaemia, insulinaemia, lacticaemia after 4 days of oral treatment). In kind it is in vivo. As to conditions: for Glucose / Insulin / Lactate: 4 days of oral treatment, blood from the tail 2 h after last administration, metformin 25 mg/kg and/or CRE16336 12.5 mg/kg; for Effect on the hyperglycaemia in the nOSTZ rats (in words): 4 days oral, metformin 25 mg/kg, CRE16336 12.5 mg/kg, alone or combined. As to the method: The antidiabetic effect of the metformin and CRE16336 combination was studied on the nOSTZ rat, an experimental model of non-insulin-dependent diabetes. This model is produced by intravenous injection of Streptozotocin (STZ) 100 mg/kg, on the day of birth. 38 male nOSTZ rats were used after selection based on the hyperglycaemia value after fasting for 2 h in order to homogenize the groups. […] a group treated with metformin at 25 mg/kg a group treated with CRE16336 at 12.5 mg/kg a group treated with metformin 25 mg/kg and CRE16336 12.5 mg/kg 5 male Wistar rats were incorporated into this study in order to evaluate the degree of hyperglycaemia in the diabetic animals. The products were administered orally in the morning between 8 am and 9 am, for 4 days.

For the compound `CN(C)C(=N)NC(=N)N` [Metformin, 1,1-dimethylbiguanide], the Glucose stood at 160 ± 5 mg/dL, the Insulin was 34.1 ± 3.7 μU/ml, the Lactate amounted to 15.4 ± 1.4 mg/dL and the “Effect on the hyperglycaemia in the nOSTZ rats (in words)” value was “does not modify the hyperglycaemia”.

Regarding `N#Cc1ccc(OCCC2SC(=O)NC2=O)cc1` (centres unmarked) [CRE16336, 5-[2-(4-cyanophenoxy)ethyl]thiazolidine-2,4-dione], the Glucose worked out at 156 ± 6 mg/dL, the Insulin amounted to 45.2 ± 5.5 μU/ml, the Lactate worked out at 13.2 ± 0.7 mg/dL and the “Effect on the hyperglycaemia in the nOSTZ rats (in words)” value was “does not modify the hyperglycaemia”.
